This is an account of results in patent US8969299B2, “Therapeutic agents for regulating serum phosphorus” (KAI Pharmaceuticals, Inc., priority 2011, dated 2015).

Structures are written as SMILES. Peptide text beside a SMILES is read from it.

The subject of one experiment is normal rats. As to the kind of experiment: PTH reduction in vivo in normal rats. Details: species or system rat. Conditions: for decrease in percent PTH: after a single IV administration in normal rats. As to the method:
The data illustrate that cationic and uncharged residues at different positions are not all equal and there are changes in activity as a result of change in the compound structure.
The structure-activity relationship of the thiol-containing group in the X1 subunit of the compound was further analyzed by preparing compounds with differing X1 subunits. The compounds, were tested in vivo in normal rats for activity to reduce PTH. The data illustrated that the thiol-containing X1 subunit can be varied. Compounds with the following in the N-terminal residue were tested—D-cysteine (cys), D-penicillamine (dPen), d-homocysteine (dHcy) and mercaptopropionic acid (Mpa). In addition, a natural or non-natural amino acid, such as beta alanine, can be conjugated to the N-terminal thiol-containing residue. The data illustrated that cationic compounds such as […] (SEQ ID NO:6) containing different thiol-containing groups in the X1 subunit effectively reduce PTH in vivo.
In another study of the structure activity relationship, the contribution of non-cationic amino acids to the potency of the peptides was evaluated by preparing a series of peptides with various D-amino acid residues or glycine or with sterically-hindered non-natural amino acids, substituted at various positions in the peptide Ac-carrrar-NH2 (SEQ ID NO:26) and in the peptide Ac-crrarar-NH2 (SEQ ID NO:153). The peptides were administered as an IV bolus to normal Sprague Dawley rats at a dose of 0.5 mg/kg. An intravenous (IV) bolus of saline was used as a control. Plasma PTH levels were assessed prior to dosing and 1, 2, 3 and 4 hours after dosing.

The next experiment concerns the target T1, human CaSR (Homo sapiens, UniProt P41180).
T1 construct: expressed in transfected cells; host or cells: HEK293
T1 sequence (P41180 20-1078): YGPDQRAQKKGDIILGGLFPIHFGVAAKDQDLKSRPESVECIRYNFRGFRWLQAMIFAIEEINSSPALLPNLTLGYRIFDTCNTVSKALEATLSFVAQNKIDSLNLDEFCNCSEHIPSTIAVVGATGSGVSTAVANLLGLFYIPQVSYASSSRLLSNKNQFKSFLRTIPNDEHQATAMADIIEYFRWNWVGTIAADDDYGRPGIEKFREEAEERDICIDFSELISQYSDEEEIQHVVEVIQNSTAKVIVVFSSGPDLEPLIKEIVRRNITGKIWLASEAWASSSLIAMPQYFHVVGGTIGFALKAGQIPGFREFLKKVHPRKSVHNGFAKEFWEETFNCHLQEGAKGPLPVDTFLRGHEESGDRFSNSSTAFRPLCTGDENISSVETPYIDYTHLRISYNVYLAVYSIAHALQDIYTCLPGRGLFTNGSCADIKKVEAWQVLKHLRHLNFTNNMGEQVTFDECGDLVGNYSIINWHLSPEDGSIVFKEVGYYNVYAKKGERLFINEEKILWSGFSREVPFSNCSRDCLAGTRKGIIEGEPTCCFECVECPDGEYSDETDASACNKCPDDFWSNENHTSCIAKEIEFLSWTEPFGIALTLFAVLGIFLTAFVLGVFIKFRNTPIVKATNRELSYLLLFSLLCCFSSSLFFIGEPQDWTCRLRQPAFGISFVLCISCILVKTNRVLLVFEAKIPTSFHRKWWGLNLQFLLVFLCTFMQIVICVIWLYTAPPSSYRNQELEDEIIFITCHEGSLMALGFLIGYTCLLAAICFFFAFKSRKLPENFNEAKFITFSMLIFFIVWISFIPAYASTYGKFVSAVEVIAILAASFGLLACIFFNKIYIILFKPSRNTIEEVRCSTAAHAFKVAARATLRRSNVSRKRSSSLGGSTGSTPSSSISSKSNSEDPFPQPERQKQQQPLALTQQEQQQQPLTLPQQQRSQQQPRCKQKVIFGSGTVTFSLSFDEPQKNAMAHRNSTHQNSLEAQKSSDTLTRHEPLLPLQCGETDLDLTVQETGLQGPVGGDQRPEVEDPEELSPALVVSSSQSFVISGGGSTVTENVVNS
As to the kind of experiment: IP1 production in HEK293 cells that express the human CaSR. In kind it is cell-based. Conditions: HEK 293 cells.

The subject of another experiment is PTH blood concentration. As to the kind of experiment: in vivo PTH-lowering activity (species not stated). The procedure: The contribution of the thiol-containing group in the X1 subunit of the compound (e.g., in certain embodiments where the compound is a peptide on the N-terminal residue), was also investigated in an in vivo study. The PTH-lowering activity of the peptides identified as SEQ ID NO:26 (Ac-carrrar-NH2) and as SEQ ID NO:29 (Ac-arrrar-NH2) was evaluated in vivo.

Another experiment relates to 1K1C model animals. Put plainly: plasma PTH reduction after 30-minute IV infusion in 1K1C model animals. Particulars: 3 mg/kg; for effect on plasma PTH: 30-minute IV infusion; for mean PTH reduction: 24 hour time point. In kind it is in vivo. The text has this: These compounds include (i) Ac-crrrr-NH2 (SEQ ID NO:4), (ii) Ac-crrrrr-NH2 (SEQ ID NO:5), (iii) Ac-crrrrrr-NH2 (SEQ ID NO:6), and (iv) Ac-crrrrrrr-NH2 (SEQ ID NO:7). In previous studies, the compounds identified as SEQ ID NO:4, SEQ ID NO:5, SEQ ID NO:6 and SEQ ID NO:7 were each administered by a 30-minute IV infusion to 1K1C model animals and effected a reduction in plasma PTH levels as a percent of the pre-dosing (baseline) level. […] These latter two compounds produced a mean PTH reduction of ˜40% and 60% at the 24 hour time point, respectively. It should be noted that the compounds in this study were administered at the same mg/kg dose but, due to differences in molecular weight, a different number of moles of each compound was actually dosed.

Procedure for human CaSR: The compounds were characterized in an in vitro human calcium-sensing receptor (CaSR) assay, wherein HEK 293 cells that express the human calcium-sensing receptor were used to measure activity of exemplary compounds.
Further structure-activity relationship studies were conducted using the in vitro cell assay in HEK 293 cells that express the human calcium-sensing receptor.
The activity of a variety of peptides and conjugates was tested for their effects on the human CaSR. These studies were conducted by measuring IP1 production in HEK293 cells that express the human CaSR.

Turning to `CC(=O)N[C@H](CS)C(=O)N[C@H](CCCNC(=N)N)C(=O)N[C@H](CCCNC(=N)N)C(=O)N[C@H](CCCNC(=N)N)C(=O)N[C@H](C)C(=O)N[C@H](CCCNC(=N)N)C(=O)N[C@H](CCCNC(=N)N)C(N)=O` [SEQ ID NO: 11, Ac-crrrarr-NH2] (HELM PEPTIDE1{[ac].[dC].[dR].[dR].[dR].[dA].[dR].[dR].[am]}$$$$V2.0), the “in vivo percent PTH AUC reduction” value with normal rats (single IV administration) is 45%. Besides, on human CaSR, the “reduction in in vitro potency relative to Ac-crrrrrr-NH2 (SEQ ID NO:6)” value is recorded as 5-10 fold.

With `CC(=O)N[C@H](CS)C(=O)N[C@H](CCCNC(=N)N)C(=O)N[C@H](CCCNC(=N)N)C(=O)N[C@H](C)C(=O)N[C@H](CCCNC(=N)N)C(=O)N[C@H](CCCNC(=N)N)C(=O)N[C@H](CCCNC(=N)N)C(N)=O` [SEQ ID NO: 10, Ac-crrarrr-NH2] (HELM PEPTIDE1{[ac].[dC].[dR].[dR].[dA].[dR].[dR].[dR].[am]}$$$$V2.0), the “decrease in percent PTH” value in the experiment with normal rats is given as “below the detection limit or essentially zero”.

With `CC(=O)N[C@H](CS)C(=O)N[C@H](C)C(=O)N[C@H](CCCNC(=N)N)C(=O)N[C@H](CCCNC(=N)N)C(=O)N[C@H](CCCNC(=N)N)C(=O)N[C@H](C)C(=O)N[C@H](CCCNC(=N)N)C(N)=O` [SEQ ID NO: 26, Ac-carrrar-NH2], the PTH blood concentration entry in the experiment with PTH blood concentration (0.5 mg/kg dose) was “decreased PTH blood concentration to a non-detectable level for up to 4 hours after dosing”. For the same compound, on human CaSR, the “ability to activate the CaSR in vitro, in words” value (“ability to activate the CaSR” below) is on record as “retained much of the potency seen with Ac-crrrrrr-NH2 (SEQ ID NO:6)” and the “reduction in in vitro potency relative to Ac-crrrrrr-NH2 (SEQ ID NO:6)” value is −3 fold.

With `CC(=O)N[C@@H](CS)C(=O)N[C@H](C)C(=O)N[C@@H](CCCNC(=N)N)C(=O)N[C@H](CCCNC(=N)N)C(=O)N[C@@H](CCCNC(=N)N)C(=O)N[C@H](C)C(=O)N[C@@H](CCCNC(=N)N)C(N)=O` [SEQ ID NO: 44, Ac-CaRrRaR-NH2], at human CaSR, the “decrease in potency relative to Ac-carrrar-NH2 (SEQ ID NO:26)” value is reported as less than 4 fold and the “reduction in in vitro potency relative to Ac-crrrrrr-NH2 (SEQ ID NO:6)” value was determined as 10 fold.

For the compound `CC(=O)N[C@H](CS)C(=O)N[C@H](CCCNC(=N)N)C(=O)N[C@H](CCCNC(=N)N)C(=O)N[C@H](CCCNC(=N)N)C(=O)N[C@H](CCCNC(=N)N)C(=O)N[C@H](CCCNC(=N)N)C(=O)N[C@H](CCCNC(=N)N)C(=O)N[C@H](CCCNC(=N)N)C(N)=O` [SEQ ID NO: 7, Ac-crrrrrrr-NH2] (HELM PEPTIDE1{[ac].[dC].[dR].[dR].[dR].[dR].[dR].[dR].[dR].[am]}$$$$V2.0), in the experiment with 1K1C model animals, the “effect on plasma PTH” value is recorded as “significant drop in plasma PTH”.

For `CC(=O)N[C@H](CS)C(=O)N[C@H](CCCNC(=N)N)C(=O)N[C@H](CCCNC(=N)N)C(=O)N[C@H](CCCNC(=N)N)C(=O)N[C@H](CCCNC(=N)N)C(=O)N[C@H](CCCNC(=N)N)C(N)=O` [SEQ ID NO: 5, Ac-crrrrr-NH2] (HELM PEPTIDE1{[ac].[dC].[dR].[dR].[dR].[dR].[dR].[am]}$$$$V2.0), in the experiment with 1K1C model animals, the “effect on plasma PTH” value is recorded as “significant drop in plasma PTH” and the “mean PTH reduction” value was 60%.

Take `CC(=O)N[C@H](CS)C(=O)N[C@H](CCCNC(=N)N)C(=O)N[C@H](CCCNC(=N)N)C(=O)N[C@H](CCCNC(=N)N)C(=O)N[C@H](CCCNC(=N)N)C(=O)N[C@H](CCCNC(=N)N)C(=O)N[C@H](CCCNC(=N)N)C(N)=O` [SEQ ID NO: 6, Ac-crrrrrr-NH2]: in the experiment on PTH blood concentration (compared with SEQ ID NO:41), the “in vivo activity in comparison” value was “greater and more prolonged activity than Ac-crrrrrrrr-NH2 (SEQ ID NO:41)”. Moreover, in the experiment on 1K1C model animals, the “effect on plasma PTH” value is “significant drop in plasma PTH” and the “mean PTH reduction” value is approximately 40%. Further, in the experiment with normal rats, the “decrease in percent PTH” value is “below the detection limit or essentially zero”.

Regarding `CC(=O)N[C@H](C)C(=O)N[C@H](CCCNC(=N)N)C(=O)N[C@H](CCCNC(=N)N)C(=O)N[C@H](CCCNC(=N)N)C(=O)N[C@H](C)C(=O)N[C@H](CCCNC(=N)N)C(N)=O` [SEQ ID NO: 29, Ac-arrrar-NH2] (HELM PEPTIDE1{[ac].[dA].[dR].[dR].[dR].[dA].[dR].[am]}$$$$V2.0), in the experiment on PTH blood concentration (9 mg/kg dose), the PTH concentration entry is on record as “did not reduce PTH concentration”. On human CaSR, the “ability to activate the CaSR” value is “dramatically reduced the ability of the compound to activate the CaSR”.

Regarding `CC(=O)N[C@H](CS)C(=O)N[C@H](C)C(=O)N[C@H](CCCNC(=N)N)C(=O)N[C@H](CCCNC(=N)N)C(=O)N[C@H](CCCNC(=N)N)C(=O)N[C@H](CCCNC(=N)N)C(=O)N[C@H](CCCNC(=N)N)C(N)=O` [SEQ ID NO: 8, Ac-carrrrr-NH2] (HELM PEPTIDE1{[ac].[dC].[dA].[dR].[dR].[dR].[dR].[dR].[am]}$$$$V2.0), the “decrease in percent PTH” value with normal rats is recorded as “below the detection limit or essentially zero”.

For the compound `CC(=O)N[C@H](CS)C(=O)N[C@H](C)C(=O)N[C@H](CCCNC(=N)N)C(=O)N[C@H](C)C(=O)N[C@H](CCCNC(=N)N)C(=O)N[C@H](CCCNC(=N)N)C(=O)N[C@H](CCCNC(=N)N)C(N)=O` [SEQ ID NO: 15, Ac-cararrr-NH2] (HELM PEPTIDE1{[ac].[dC].[dA].[dR].[dA].[dR].[dR].[dR].[am]}$$$$V2.0), the “ability to activate the CaSR” value at human CaSR is listed as “significantly reduced potency in vitro in activating the CaSR”.

`CC(=O)N[C@H](CS)C(=O)N[C@H](CCCNC(=N)N)C(=O)N[C@H](CCCNC(=N)N)C(=O)N[C@H](CCCNC(=N)N)C(=O)N[C@H](CCCNC(=N)N)C(=O)N[C@H](CCCNC(=N)N)C(=O)N[C@H](CCCNC(=N)N)C(=O)N[C@H](CCCNC(=N)N)C(=O)N[C@H](CCCNC(=N)N)C(N)=O` [SEQ ID NO: 41, Ac-crrrrrrrr-NH2] (HELM PEPTIDE1{[ac].[dC].[dR].[dR].[dR].[dR].[dR].[dR].[dR].[dR].[am]}$$$$V2.0): at human CaSR, the “ability to activate the CaSR” value is “more potent at activating the CaSR”.
